Key:
[1] = tested on: insulin secretion; conditions: in vitro; cited from earlier work
[2] = in vivo; cited from earlier work
[3] = tested on: body weight gain; conditions: high-fat diet-fed mouse; cited from earlier work
[4] = tested on: gastric emptying; experiment: Gastric emptying-suppressive action (phenol red test meal); assay type: in vivo, Sprague Dawley rats; conditions: 500 mg/kg oral, test meal 1 hour later, stomach isolated after 90 minutes, vs vehicle, p<0.05, FIG. 1
Description: Male Sprague Dawley rats (12 weeks of age, Charles River Laboratories Japan Inc.) (n=5) were used. After fasting for 20 hours, distilled water for injection (5 mL/kg) was orally administered to a vehicle group and 4-hydroxyisoleucine (500 mg/5 mL/kg) was orally administered to a 4-hydroxyisoleucine administration group. One hour later, a test meal (1.5% methylcellulose, 0.05% phenol red, 1.5 ml) was orally administered. After 90 minutes, the stomach was isolated under an ether anesthesia, the gastric contents were recovered and the remaining phenol red was quantified. A control group was prepared. After fasting for 20 hours, a test meal (1.5% methylcellulose, 0.05% phenol red, 1.5 mL) was orally administered. Immediately after administration of the test meal, the stomach was isolated under an ether anesthesia, the gastric contents were recovered and the remaining phenol red was quantified. The gastric emptying was calculated by the following formula.
Gastric emptying (%)=(1-phenol red amount of each individual/average phenol red amount of control group*)×100*:test meal alone was administered, n=2
The difference between the 4-hydroxyisoleucine (HIL) administration group and the distilled water for injection (vehicle) administration group was detected according to Student's t test, and p<0.05 was judged as significant.

[5] = tested on: food intake; experiment: Food intake suppressive action (cumulative feed intake); assay type: in vivo, Wistar rats; conditions: 500 mg/kg oral after fasting for 9 hours, vs vehicle, p<0.05, FIG. 2
Description: Male Wistar rats (7 weeks of age, Charles River Laboratories Japan Inc.) (n=5) were used. After fasting for 9 hours, distilled water for injection (5 mL/kg) or 4-hydroxyisoleucine (50, 150, 500 mg/5 mL/kg) was orally administered at 18:00. Immediately thereafter, feeding was started. The cumulative feed intake was measured at 30 min, 1 hr, 3 hr and 16 hr after the administration. […] The difference between the 4-hydroxyisoleucine administration group and the distilled water for injection (vehicle) administration group was detected according to Student's t test, and p<0.05 was judged as significant.

SMILES: C[C@@H]([C@H](C)O)[C@H](N)C(=O)O [4-hydroxyisoleucine]
- insulin secretagogue action [1]: shows an insulin secretagogue action
- antidiabetic action [2]: an antidiabetic action
- suppression of body weight gain [3]: does not show such action
- Gastric emptying (%) [4]: significantly suppressed
- food intake (cumulative feed intake) [5]: significantly suppressed

From patent publication US20090247636A1, “AGENT FOR SUPPRESSION OF GASTRIC EMPTYING COMPRISING 4-HYDROXYISOLEUCINE” (AJINOMOTO CO., INC.,, priority 2006, published 2009)
